Toxic doses and inconclusive results are not listed.
System: P388 leukemia ip, CD2F1 mice, survival T/C
Experiment: NCI In Vivo Anticancer Drug Screen. Data for tumor model P388 Leukemia (intraperitoneal) in CD2F1 (CDF1) mice
Conditions: endpoint: median survival time, higher = longer survival
Outline: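 Mice carrying the transplanted tumor received test compound or vehicle. Survival was recorded in each group, and the value is the treated-group measurement divided by that of the vehicle-treated control group.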

[1] = dose: 50.0 mg/kg/injection, schedule: Q01DX005 (ip), vehicle: Klucel (hydroxypropylcellulose) (HPC)
[2] = dose: 100.0 mg/kg/injection, schedule: Q01DX005 (ip), vehicle: Klucel (hydroxypropylcellulose) (HPC)
[3] = dose: 200.0 mg/kg/injection, schedule: Q01DX005 (ip), vehicle: Klucel (hydroxypropylcellulose) (HPC)
[4] = dose: 100.0 mg/kg/injection, schedule: Q04DX002 (ip), vehicle: saline with Tween-80
[5] = dose: 200.0 mg/kg/injection, schedule: Q04DX002 (ip), vehicle: saline with Tween-80
[6] = dose: 6.25 mg/kg/injection, schedule: Q01DX009 (ip), vehicle: saline with Tween-80
[7] = dose: 12.5 mg/kg/injection, schedule: Q01DX009 (ip), vehicle: saline with Tween-80
[8] = dose: 50.0 mg/kg/injection, schedule: Q01DX009 (ip), vehicle: Klucel (hydroxypropylcellulose) (HPC)
[9] = dose: 100.0 mg/kg/injection, schedule: Q01DX009 (ip), vehicle: Klucel (hydroxypropylcellulose) (HPC)
[10] = dose: 200.0 mg/kg/injection, schedule: Q01DX009 (ip), vehicle: Klucel (hydroxypropylcellulose) (HPC)
[11] = dose: 200.0 mg/kg/injection, schedule: Q01DX005 (ip), vehicle: saline with Tween-80

## Nc1ccc(O)c(=O)cc1
[1]
  T/C: 96 % of control
[2]
  T/C: 95 % of control
[3]
  T/C: 92 % of control

## Cc1nc2ccc(NC(=O)NC(=O)c3c(F)cccc3F)cc2s1
dose: 50.0 mg/kg/injection, schedule: Q04DX002 (ip), vehicle: saline with Tween-80
  T/C: 92 % of control
[4]
  T/C: 92 % of control
[5]
  T/C: 89 % of control

## COc1c(C)cc([N+](=O)[O-])c(C)c1[N+](=O)[O-]
dose: 50.0 mg/kg/injection, schedule: Q01DX001 (ip), vehicle: Klucel (hydroxypropylcellulose) (HPC)
  T/C: 92 % of control
dose: 100.0 mg/kg/injection, schedule: Q01DX001 (ip), vehicle: Klucel (hydroxypropylcellulose) (HPC)
  T/C: 93 % of control
dose: 200.0 mg/kg/injection, schedule: Q01DX001 (ip), vehicle: Klucel (hydroxypropylcellulose) (HPC)
  T/C: 90 % of control

## COc1ccc(Cc2nc(C)cc3cc(OC)c(OC)cc23)cc1OC
dose: 50.0 mg/kg/injection, schedule: Q01DX009 (ip), vehicle: water
  T/C: 111 % of control
dose: 100.0 mg/kg/injection, schedule: Q01DX009 (ip), vehicle: water
  T/C: 102 % of control
dose: 200.0 mg/kg/injection, schedule: Q01DX009 (ip), vehicle: water
  T/C: 89 % of control

## COc1cccc2c1C(=O)c1c(O)c3c(c(O)c1C2=O)CC(O)(C(=O)CO)CC3OC1CC(NC(=O)C(F)(F)F)C(OC2CC(N)C(O)C(C)O2)C(C)O1 (stereo not drawn)
dose: 3.13 mg/kg/injection, schedule: Q04DX003 (ip), vehicle: water
  T/C: 109 % of control
dose: 12.5 mg/kg/injection, schedule: Q04DX003 (ip), vehicle: water
  T/C: 119 % of control
dose: 25.0 mg/kg/injection, schedule: Q04DX003 (ip), vehicle: water
  T/C: 113 % of control
dose: 50.0 mg/kg/injection, schedule: Q04DX003 (ip), vehicle: water
  T/C: 117 % of control

## CC(=O)Nc1ccc(S(=O)(=O)n2c(=O)oc3ccc(Br)cc32)cc1
[1]
  T/C: 98 % of control
[2]
  T/C: 100 % of control
[3]
  T/C: 99 % of control

## COC(=O)c1cc2c(cc1/C=C/C=O)OCO2
dose: 60.0 mg/kg/injection, schedule: Q01DX005 (ip), vehicle: saline with Tween-80
  T/C: 100 % of control
dose: 120.0 mg/kg/injection, schedule: Q01DX005 (ip), vehicle: saline with Tween-80
  T/C: 109 % of control
dose: 240.0 mg/kg/injection, schedule: Q01DX005 (ip), vehicle: saline with Tween-80
  T/C: 109 % of control

## O=C(CC(=O)c1ccccc1)c1ccccc1.[Tl]
[6]
  T/C: 100 % of control
[7]
  T/C: 98 % of control

## O=C1C(=C2C=CN(CCCN3CCCC3)C=C2)C(=O)c2ccccc21
[8]
  T/C: 90 % of control
[9]
  T/C: 96 % of control
[10]
  T/C: 95 % of control

## NC(=S)c1ncn(C2OC(COC=O)C(OC=O)C2OC=O)c1NC=O (stereo not drawn)
dose: 25.0 mg/kg/injection, schedule: Q01DX005 (ip), vehicle: Klucel (hydroxypropylcellulose) (HPC)
  T/C: 110 % of control
[1]
  T/C: 108 % of control
[2]
  T/C: 113 % of control
[3]
  T/C: 120 % of control
[11]
  T/C: 114 % of control
dose: 400.0 mg/kg/injection, schedule: Q01DX005 (ip), vehicle: Klucel (hydroxypropylcellulose) (HPC)
  T/C: 100 % of control
dose: 400.0 mg/kg/injection, schedule: Q01DX005 (ip), vehicle: saline with Tween-80
  T/C: 97 % of control

## N#CCC(=O)N/N=C(/CC1(O)C(=O)Nc2c(Cl)ccc(Cl)c21)c1ccco1 (stereo not drawn)
[4]
  T/C: 97 % of control
[5]
  T/C: 89 % of control
dose: 400.0 mg/kg/injection, schedule: Q04DX002 (ip), vehicle: saline with Tween-80
  T/C: 89 % of control

## CC(=O)Oc1ccc2ccc3nonc3c2c1
dose: 50.0 mg/kg/injection, schedule: Q01DX005 (ip), vehicle: saline with Tween-80
  T/C: 99 % of control
dose: 100.0 mg/kg/injection, schedule: Q01DX005 (ip), vehicle: saline with Tween-80
  T/C: 99 % of control
[11]
  T/C: 94 % of control

## C=CC(=O)N1CN(C(=O)C=C)CN(C(=O)C=C)C1
[6]
  T/C: 100 % of control
[7]
  T/C: 158 % of control

## NC(Cc1ccccc1F)c1nn[nH]n1 (stereo not drawn)
dose: 25.0 mg/kg/injection, schedule: Q01DX009 (ip), vehicle: saline with Tween-80
  T/C: 108 % of control
dose: 50.0 mg/kg/injection, schedule: Q01DX009 (ip), vehicle: saline with Tween-80
  T/C: 97 % of control
dose: 100.0 mg/kg/injection, schedule: Q01DX009 (ip), vehicle: saline with Tween-80
  T/C: 99 % of control

## OCCCCP12(OC(C(F)(F)F)(C(F)(F)F)c3ccccc31)OC(C(F)(F)F)(C(F)(F)F)c1ccccc12
[8]
  T/C: 102 % of control
[9]
  T/C: 100 % of control
[10]
  T/C: 102 % of control

From PubChem BioAssay AID330 (DTP/NCI, 2004)
